Patent publication US5610140A, “Bradykinin receptor antagonists with neurokinin receptor blocking activity” (priority 1994, dated 1997)
“Also recorded” adds a separate entry of the source. Like-named read-outs stand apart in the source and are kept apart here. Blank lines part the entries; values can stand above or below the molecule they belong to. Square brackets hold non-standard residues; d marks the D form. Peptide text beside a SMILES is read from it. * marks the point of attachment. X5 = C[C@@H](O)[C@H](NC(=O)CCCN1C(=O)CC(*)C1=O)C(=O)N[C@H](Cc1cn(C=O)c2ccccc12)C(=O)N[C@@H](Cc1ccccc1)C(=O)N(C)Cc1ccccc1; Hyp = O=C(O)[C@@H]1C[C@@H](O)CN1

Columns and labels:
[1] = target: T1, Neurokinin 1 (NK1) receptor (Cavia porcellus, UniProt P30547); conditions: for NK1 pA2: agonist substance P-O-methyl ester
T1 sequence (P30547 whole entry): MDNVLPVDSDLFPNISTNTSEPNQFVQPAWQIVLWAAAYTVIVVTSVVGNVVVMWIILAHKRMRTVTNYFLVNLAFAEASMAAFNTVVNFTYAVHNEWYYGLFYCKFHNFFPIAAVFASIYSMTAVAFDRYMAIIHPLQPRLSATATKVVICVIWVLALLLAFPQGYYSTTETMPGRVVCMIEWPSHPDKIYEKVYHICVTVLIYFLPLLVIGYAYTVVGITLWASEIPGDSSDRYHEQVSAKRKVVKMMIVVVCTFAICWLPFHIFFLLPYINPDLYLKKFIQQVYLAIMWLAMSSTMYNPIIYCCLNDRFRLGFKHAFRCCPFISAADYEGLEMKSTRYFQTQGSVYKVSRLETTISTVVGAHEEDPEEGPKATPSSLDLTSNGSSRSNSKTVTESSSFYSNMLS

[2] = target: T1, Neurokinin 1 (NK1) receptor; experiment: cell-based
[3] = target: T2, Bradykinin 2 (BK2) receptor (Rattus norvegicus, UniProt P25023)
T2 sequence (P25023 1-396): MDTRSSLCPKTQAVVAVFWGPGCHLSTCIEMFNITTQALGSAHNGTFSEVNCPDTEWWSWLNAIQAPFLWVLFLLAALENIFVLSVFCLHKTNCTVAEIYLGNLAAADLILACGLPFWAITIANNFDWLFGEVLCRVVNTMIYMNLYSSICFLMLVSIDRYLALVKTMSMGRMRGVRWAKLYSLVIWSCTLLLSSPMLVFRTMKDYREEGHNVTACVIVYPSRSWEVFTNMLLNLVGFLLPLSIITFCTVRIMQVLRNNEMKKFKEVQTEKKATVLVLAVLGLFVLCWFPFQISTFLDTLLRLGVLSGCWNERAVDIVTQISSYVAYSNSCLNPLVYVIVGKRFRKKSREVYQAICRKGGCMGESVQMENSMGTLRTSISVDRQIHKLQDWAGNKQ

[4] = target: T2, Bradykinin 2 (BK2) receptor; experiment: cell-based
[5] = as reported in the literature; cited from earlier work
Water solubility = assay type: physicochemical; conditions: in the absence of organic co-solvents
NK1 receptors = NK1 receptors (Homo sapiens, UniProt P25103); conditions: more potent than FK888; cited from earlier work
NK1 receptors, sequence (P25103 whole entry): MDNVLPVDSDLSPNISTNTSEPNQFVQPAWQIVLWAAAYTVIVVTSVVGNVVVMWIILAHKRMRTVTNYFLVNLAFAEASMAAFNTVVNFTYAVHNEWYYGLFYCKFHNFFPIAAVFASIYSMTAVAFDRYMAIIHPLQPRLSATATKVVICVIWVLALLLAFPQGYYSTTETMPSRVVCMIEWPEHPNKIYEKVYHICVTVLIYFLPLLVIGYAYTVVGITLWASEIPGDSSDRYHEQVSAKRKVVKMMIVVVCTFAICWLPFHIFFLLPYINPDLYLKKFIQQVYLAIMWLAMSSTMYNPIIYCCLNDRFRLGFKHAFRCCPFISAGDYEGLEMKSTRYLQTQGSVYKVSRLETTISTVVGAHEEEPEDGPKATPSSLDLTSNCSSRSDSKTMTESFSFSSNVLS

[6] = target: T3, isolated guinea pig lung membrane (Cavia porcellus, UniProt P30547); conditions: read-out: binding constant; cited from earlier work
T3 construct: host or cells: guinea pig lung membrane
T3 sequence (P30547 whole entry): as the sequence (P30547 whole entry) above

[7] = cited from earlier work
[8] = In vitro stability in human plasma; assay type: in vitro ADME
Protocol: (§1) Plasma samples were prepared by collection of whole blood from healthy male and female human volunteers or guinea pigs. Samples were collected into culture tubes containing sodium heparin, and were then spun at 4° C. at 2000 rpm for ten minutes. Supernatant fractions were removed by aspiration and stored in vials at -20° C. Rat or porcine lung and kidney cortical membranes were prepared using differential centrifugation. Membrane preparations were stored at -20° C. The test compound was diluted to 1 mM concentration in PBS (0.0132 M phosphate, 0.1454 M NaCl, pH 7.2). Ten microliters of this working solution were delivered into a series of Eppendorf tubes, followed by human or guinea pig plasma (90 uL) or PBS as a control blank, and incubated for various time periods. […] Supernatant fractions were removed, filtered through 0.22 uM filters (Millipore) and analyzed by HPLC (C18, 12-80% acetonitrile in water, both containing 0.1% trifluoroacetic acid, monitoring at 214 nm.
(§2) Porcine kidney preparations were diluted 1:10 with PBS; rat kidney preparations were diluted 1:100 with PBS. […] At various time points the reactions were quenched by the addition of 100 uL of ethanol, centrifuged and analyzed by HPLC as described above. The half-life for the disappearance of the HPLC peak was determined using the computer program ENZFIT (Elsevier). […]

[9] = In vitro stability in rat kidney cortical membranes; assay type: in vitro ADME; conditions: Rat Kidney membrane preparation diluted 1:100 with PBS
Protocol: as §1, §2

[10] = In vitro stability in porcine kidney cortical membranes; assay type: in vitro ADME; conditions: Pig Kidney membrane preparation diluted 1:10 with PBS
Protocol: as §1, §2

[11] = guinea pig ileum, recovery of agonist response after wash-off

Compound: C[C@@H](O)[C@H](NC(=O)CCCCCN1C(=O)CC(SCCO)C1=O)C(=O)N[C@H](Cc1cn(C=O)c2ccccc12)C(=O)N[C@@H](Cc1ccccc1)C(=O)N(C)Cc1ccccc1 (some centres unmarked) [CP-0528]
NK1 % recovery (wash-off) [1]: 80% | Kb [2]: 316 nM

Compound: CC(C)C[C@H](NC(=O)[C@@H](Cc1ccccc1)NC(=O)[C@H](CSC1CC(=O)N(CCCC(=O)N[C@H](C(=O)N[C@H](Cc2cn(C=O)c3ccccc23)C(=O)N[C@@H](Cc2ccccc2)C(=O)N(C)Cc2ccccc2)[C@@H](C)O)C1=O)NC(=O)[C@H](Cc1ccccc1)NC(=O)CNC(=O)[C@@H]1C[C@@H](O)CN1C(=O)[C@@H]1CCCN1C(=O)[C@H](CCCNC(=N)N)NC(=O)[C@H](N)CCCNC(=N)N)C(=O)N[C@@H](CCCNC(=N)N)C(=O)O (some centres unmarked) [Compound 2] (H-[dR]RP[Hyp]GFC(X5)[dF]LR-OH)
NK1 % recovery (wash-off) [1]: 48% | BK2 % Recovery (wash-off) [3]: 20% | Kb [2]: 126 nM | Kb [4]: 6.31 nM

Compound: CN(Cc1ccccc1)C(=O)[C@H](Cc1ccc2ccccc2c1)NC(=O)[C@@H]1C[C@@H](O)CN1C(=O)c1cn(C)c2ccccc12 [FK888]
water solubility [5]: poor water solubility

water solubility (Water solubility): poor water solubility | NK1 pA2 ([1]; guinea pig ileum): 7.5 | NK1 % recovery (wash-off) [1, 11]: 41%
Compound: CN(Cc1ccccc1)C(=O)[C@H](Cc1ccc2ccccc2c1)NC(=O)[C@H](CCCCN)NC(=O)c1c[nH]c2ccccc12 [CP-0535]

Compound: COc1ccccc1CN[C@H]1CCCN[C@H]1c1ccccc1 [CP-99994]
potency relative to FK888 in binding studies (NK1 receptors): 10 times

NK1 pA2 ([1]; guinea pig ileum): 6.3 | NK1 % recovery (wash-off) [1, 11]: 73%
Compound: CN(Cc1ccccc1)C(=O)[C@H](Cc1ccccc1)NC(=O)[C@H](CCCCN)NC(=O)c1c[nH]c2ccccc12 [CP-0533]
water solubility (Water solubility): poor solubility in water; also recorded: minimal water solubility

Compound: CC(=O)N[C@H](C(=O)N[C@H](Cc1c[nH]c2ccccc12)C(=O)N[C@@H](Cc1ccccc1)C(=O)N(C)Cc1ccccc1)[C@@H](C)O [FR113680, Ac-Thr-D-Trp-Phe-N(CH3)Bn, reference compound]
NK1 % recovery (wash-off) [1]: 53% | Ki [6]: 5.8 nM | Kb [2]: 100 nM | in vivo stability [7]: moderate in vivo stability

Compound: NC(N)=NCCC[C@H](NC(=O)[C@H](Cc1ccccc1)NC(=O)[C@@H]1CCCN1C(=O)[C@H](CO)NC(=O)[C@H](Cc1ccccc1)NC(=O)CNC(=O)[C@@H]1CCCN1C(=O)[C@@H]1CCCN1C(=O)[C@@H](N)CCCN=C(N)N)C(=O)O [Bradykinin] (H-RPPGFSPFR-OH)
Half-life [8]: 27 min | Half-life [9]: 7.8 min | Half-life [10]: 3 min

Half-life [8]: 165 min | Half-life [9]: 39.6 min | Half-life [10]: > 360 min
Compound: CC(C)C[C@H](NC(=O)[C@@H](Cc1ccccc1)NC(=O)[C@H](CSC1CC(=O)N(CCCCCCN2C(=O)CC(SC[C@H](NC(=O)[C@H](Cc3ccccc3)NC(=O)CNC(=O)[C@@H]3C[C@@H](O)CN3C(=O)[C@@H]3CCCN3C(=O)[C@H](CCCNC(=N)N)NC(=O)[C@H](N)CCCNC(=N)N)C(=O)N[C@H](Cc3ccccc3)C(=O)N[C@@H](CC(C)C)C(=O)N[C@@H](CCCNC(=N)N)C(=O)O)C2=O)C1=O)NC(=O)[C@H](Cc1ccccc1)NC(=O)CNC(=O)[C@@H]1C[C@@H](O)CN1C(=O)[C@@H]1CCCN1C(=O)[C@H](CCCNC(=N)N)NC(=O)[C@H](N)CCCNC(=N)N)C(=O)N[C@@H](CCCNC(=N)N)C(=O)O (some centres unmarked) [CP-0127] (HELM PEPTIDE1{[dR].R.P.[Hyp].G.F.C.[dF].L.R}|PEPTIDE2{[dR].R.P.[Hyp].G.F.C.[dF].L.R}|CHEM1{[O=C1CC([*:1])C(=O)N1CCCCCCN1C(=O)CC([*:2])C1=O]}$PEPTIDE1,CHEM1,7:R3-1:R1|PEPTIDE2,CHEM1,7:R3-1:R2$$$V2.0)

Compound: C[C@@H](O)[C@H](NC(=O)CCCN1C(=O)CC(SCCO)C1=O)C(=O)N[C@H](Cc1cn(C=O)c2ccccc12)C(=O)N[C@@H](Cc1ccccc1)C(=O)N(C)Cc1ccccc1 (some centres unmarked) [CP-0529]
NK1 % recovery (wash-off) [1]: 55% | Kb [2]: 126 nM
